pIC50, pKi: −log10 of the molar value. Read-outs that look alike come from different tables or passages of the source.

For experiment [1], the target named is T1, vanilloid receptor (VR1) (Homo sapiens, UniProt Q8NER1).
T1 construct: expressed in transfected cells; host or cells: CHO K1 cells (ECACC), stably transfected
In words: FLIPR Ca2+ influx assay on CHO K1 cells transfected with the VR1 gene (pharmacological method II). In kind it is cell-based. The conditions noted are these: CHO-K1, read-out: inhibition in percent, Ki (human) Cap.; for inhibition at 1 µM: ne = no effect.

The target of experiment [2] is VR1/TRPV1 receptor (Homo sapiens, UniProt Q8NER1). Nature of the experiment: IC50 (human) after pH stimulus. The class given is cell-based. The settings on record: for inhibition in percent, IC50 (human) after pH stimulus: @ 1 μM, ne = no effect; for pIC50: table 4.
Sequence of VR1/TRPV1 receptor (Q8NER1 whole entry): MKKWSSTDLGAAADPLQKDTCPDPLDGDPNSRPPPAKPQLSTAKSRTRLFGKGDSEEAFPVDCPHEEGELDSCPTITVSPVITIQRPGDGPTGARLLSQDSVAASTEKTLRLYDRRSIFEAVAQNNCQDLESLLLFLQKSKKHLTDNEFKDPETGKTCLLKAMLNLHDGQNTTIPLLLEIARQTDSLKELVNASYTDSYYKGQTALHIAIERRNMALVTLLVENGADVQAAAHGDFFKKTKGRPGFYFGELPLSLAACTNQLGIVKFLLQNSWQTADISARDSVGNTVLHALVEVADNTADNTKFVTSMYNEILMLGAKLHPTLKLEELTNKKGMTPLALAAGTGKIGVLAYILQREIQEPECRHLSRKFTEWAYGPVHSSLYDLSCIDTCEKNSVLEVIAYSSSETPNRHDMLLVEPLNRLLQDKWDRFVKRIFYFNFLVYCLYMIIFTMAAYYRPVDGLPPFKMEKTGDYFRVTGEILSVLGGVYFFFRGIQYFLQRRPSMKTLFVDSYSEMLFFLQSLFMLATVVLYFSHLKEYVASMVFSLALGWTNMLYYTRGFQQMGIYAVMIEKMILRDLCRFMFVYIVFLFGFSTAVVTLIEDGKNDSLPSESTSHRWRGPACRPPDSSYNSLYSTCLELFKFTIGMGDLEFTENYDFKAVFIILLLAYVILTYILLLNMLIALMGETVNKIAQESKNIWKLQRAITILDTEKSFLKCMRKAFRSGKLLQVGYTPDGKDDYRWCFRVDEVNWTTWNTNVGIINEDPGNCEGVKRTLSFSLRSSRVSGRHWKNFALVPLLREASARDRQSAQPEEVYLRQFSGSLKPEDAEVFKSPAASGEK
For experiment [3], the target named is T2, vanilloid receptor 1 (VR1/TRPV1) of the rat species (Rattus norvegicus, UniProt O35433).
T2 construct: The spinal column is removed from decapitated rats; from tissue; host or cells: primary cells dissociated from rat dorsal root ganglia
T2 sequence (O35433 whole entry): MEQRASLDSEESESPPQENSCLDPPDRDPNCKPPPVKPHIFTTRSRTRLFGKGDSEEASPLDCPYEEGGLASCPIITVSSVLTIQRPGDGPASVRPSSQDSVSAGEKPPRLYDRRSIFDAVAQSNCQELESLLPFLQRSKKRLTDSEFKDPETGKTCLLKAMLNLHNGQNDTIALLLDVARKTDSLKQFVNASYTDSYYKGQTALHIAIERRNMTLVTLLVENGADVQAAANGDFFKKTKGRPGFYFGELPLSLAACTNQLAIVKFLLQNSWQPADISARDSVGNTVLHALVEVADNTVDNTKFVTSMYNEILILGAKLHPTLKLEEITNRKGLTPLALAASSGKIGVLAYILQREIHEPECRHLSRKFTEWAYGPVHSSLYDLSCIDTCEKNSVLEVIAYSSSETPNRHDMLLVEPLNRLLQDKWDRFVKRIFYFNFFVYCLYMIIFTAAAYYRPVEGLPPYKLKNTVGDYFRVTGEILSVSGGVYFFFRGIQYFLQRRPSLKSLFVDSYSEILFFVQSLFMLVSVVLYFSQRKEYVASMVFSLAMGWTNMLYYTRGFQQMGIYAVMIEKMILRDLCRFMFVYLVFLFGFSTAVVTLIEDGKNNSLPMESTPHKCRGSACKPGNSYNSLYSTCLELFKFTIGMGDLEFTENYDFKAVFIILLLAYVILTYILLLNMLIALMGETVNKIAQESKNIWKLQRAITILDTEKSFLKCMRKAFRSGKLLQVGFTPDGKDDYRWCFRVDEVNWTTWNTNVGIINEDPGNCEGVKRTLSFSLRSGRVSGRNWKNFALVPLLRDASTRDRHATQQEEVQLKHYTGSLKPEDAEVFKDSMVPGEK
Nature of the experiment: FLIPR Ca2+ influx assay on rat dorsal root ganglia cells (pharmacological method I). The class given is cell-based. The conditions noted are these: table 4, capsaicin. Summed up: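 Primary rat dorsal root ganglion cells loaded with 2 μM Fluo-4, Ca2+ influx read on FLIPR as peak fluorescence. Triplicates, at least 3 independent experiments.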

The target of experiment [4] is T1, vanilloid receptor (VR1). Nature of the experiment: FLIPR Ca2+ influx assay on CHO K1 cells transfected with the VR1 gene (pharmacological method II). In kind it is cell-based. The settings on record: table 4; capsaicin; read-out: Ki (human) Cap.
Experiment [5] concerns capsaicin induced hypothermie. In words: Hypothermie assay in the mouse (capsaicin induced hypothermie). The conditions noted are these: mouse, read-out: inhibition hypothermie (n = 5); for inhibition in vivo at 0.3 mg/kg: 0.3 mg/kg body weight po. The class given is in vivo.
The test system of experiment [6] is formaldehyde induced nociceptive behaviour. Nature of the experiment: Formaldehyde test in mice, second (late) phase. The class given is in vivo, mouse. The settings on record: mouse, read-out: inhibition formaldehyde test (n = 10); for inhibition in vivo at 0.3 mg/kg: 0.3 mg/kg body weight po; for inhibition in vivo at 0.1 mg/kg: 0.1 mg/kg body weight po.

T1 sequence (Q8NER1 whole entry): as the sequence (Q8NER1 whole entry) above

As a reminder, the inhibition is how much of the control response was suppressed. On to `CC(C(=O)NCc1c(CO)cc(C(C)(C)C)nc1OCc1ccccc1)c1ccc(NS(C)(=O)=O)c(F)c1` (stereo not shown) [Compound 223], for which, in experiment [1] (@ 0.1 μM), the inhibition at 0.1 µM worked out at 4%.

For the compound `CC(C(=O)NCc1ccc(C(F)(F)F)nc1OC1CCNCC1)c1ccc(NS(C)(=O)=O)c(F)c1` (stereo not shown) [Example 344, 2-(3-fluoro-4-methylsulfonamido-phenyl)-N-[2-(piperidin-4-yloxy)-6-trifluoromethyl-pyridin-3-ylmethyl]-propionamide], the inhibition at 5 µM in experiment [1] was 34%. The “inhibition in percent, IC50 (human) after pH stimulus” value in experiment [2] is “ne @ 1 μM”.

Consider `CC(C(=O)NCc1ccc(C(F)(F)F)nc1N1CCS(=O)(=O)CC1)c1ccc(NS(C)(=O)=O)c(F)c1` (stereo not shown) [Compound 314], for which the inhibition at 1 µM in experiment [1] was 12%.

Regarding `CC(C(=O)NCc1ccc(C(F)(F)F)nc1OCC1CCNCC1)c1ccc(NS(C)(=O)=O)c(F)c1` (stereo not shown) [Compound 343], the inhibition at 1 µM in experiment [1] amounted to 8%.

What is called pKi is the negative decadic logarithm of the Ki, by convention in mol/L. As usually defined, the pIC50 is −log10 of the IC50, conventionally taken in molar units. On to `CC(C(=O)NCc1ccc(C(F)(F)Cl)nc1OC1CCCC1)c1ccc(NS(C)(=O)=O)c(F)c1` (stereo not shown) [Example 166, N-[6-(chloro-difluoro-methyl)-2-cyclopentyloxy-pyridin-3-ylmethyl]-2-(3-fluoro-4-methylsulfonamido-phenyl)-propionamide], for which the negative-log Ki (pKi) in experiment [3] (read-out: Ki (rat) Cap.) was 8.96; in experiment [4] it was 9.30. The inhibition in vivo at 0.3 mg/kg is 28% in experiment [5] and 48% in experiment [6]. For the same compound, the pIC50 in experiment [2] is 7.73.

For the compound `COC1CCN(c2nc(C(F)(F)F)ccc2CNC(=O)C(C)c2ccc(NS(C)(=O)=O)c(F)c2)CC1` (stereo not shown) [Example 159, 2-(3-fluoro-4-methylsulfonamido-phenyl)-N-(4-methoxy-6′-trifluoromethyl-3,4,5,6-tetrahydro-2H-[1,2′]bipyridinyl-3′-ylmethyl)-propionamide], the pKi is 7.67 in experiment [3] (read-out: Ki (rat) Cap.) and 8.62 in experiment [4]. Also, the results for the inhibition in vivo at 0.3 mg/kg in experiment [5] and in experiment [6] were 28% and 10%, respectively. Further, the negative-log IC50 (pIC50) in experiment [2] is 6.55.

`CC(C(=O)NCc1ccc(C(F)(F)F)nc1NC1CCCCC1)c1ccc(NS(C)(=O)=O)c(F)c1` (stereo not shown) [Example 90, N-(2-cyclohexylamino-6-trifluoromethyl-pyridin-3-ylmethyl)-2-(3-fluoro-4-methylsulfonamido-phenyl)-propionamide]: the pKi in experiment [3] (read-out: Ki (rat) Cap.) is 7.33; in experiment [4], 7.69. The inhibition in vivo at 0.3 mg/kg in experiment [5] was determined as 81%; in experiment [6] it was 46%. Further, the negative logarithm of the IC50 (pIC50) in experiment [2] is 6.59.

On to `CC(C(=O)NCc1ccc(C(F)(F)F)nc1N1CCS(=O)(=O)CC1)c1ccc(NS(C)(=O)=O)c(F)c1` (stereo not shown) [Example 314, N-[2-(1,1-dioxo-1l6-thiomorpholin-4-yl)-6-trifluoromethyl-pyridin-3-ylmethyl]-2-(3-fluoro-4-methylsulfonamido-phenyl)-propionamide], for which the inhibition at 5 µM in experiment [1] came to 46%; in experiment [2] (@ 5 μM, read-out: inhibition in percent, IC50 (human) after pH stimulus), 14%. In addition, the inhibition at 10 µM in experiment [2] (@ 10 μM, read-out: inhibition in percent, IC50 (human) after pH stimulus) came to 31%.

`CC(C(=O)NCc1ccc(C(F)(F)F)cc1N1CCCCCCC1)c1ccc(NS(C)(=O)=O)c(F)c1` (stereo not shown) [Example 217, N-(2-azocan-1-yl-4-trifluoromethyl-benzyl)-2-(3-fluoro-4-methylsulfonamido-phenyl)-propionamide]: the pKi in experiment [3] (read-out: Ki (rat) Cap.) is 8.96; in experiment [4] it was 8.55. The inhibition in vivo at 0.1 mg/kg in experiment [5] (0.1 mg/kg body weight po) was found to be 40%. The same compound gave a pIC50 in experiment [2] of 7.44. Besides, in experiment [6], the inhibition in vivo at 0.3 mg/kg turned out to be 9%.

`CC(C(=O)NCc1ccc(C(F)(F)F)nc1OC1CCNCC1)c1ccc(NS(C)(=O)=O)c(F)c1` (stereo not shown) [Compound 344]: the inhibition at 1 µM in experiment [1] came out at 3%.

In the case of `CC(C(=S)NCc1ccc(C(F)(F)F)nc1N1CCCC1)c1ccc(NS(C)(=O)=O)c(F)c1` (stereo not shown) [Example 129, 2-(3-fluoro-4-methylsulfonamido-phenyl)-N-(2-pyrrolidin-1-yl-6-trifluoromethyl-pyridin-3-ylmethyl)-thiopropionamide], the negative logarithm of the Ki (pKi) is 8.80 in experiment [3] (read-out: Ki (rat) Cap.) and 8.74 in experiment [4]. Besides, the inhibition in vivo at 0.3 mg/kg in experiment [5] is 10%; in experiment [6] it was 5%. This compound also had a negative-log IC50 (pIC50) in experiment [2] of 7.11.

Turning to `CC(C(=O)NCc1ccc(C(F)(F)F)nc1N1CCN(c2ccc(F)cc2)CC1)c1ccc(NS(C)(=O)=O)c(F)c1` (stereo not shown) [Example 179, 2-(3-fluoro-4-methylsulfonamido-phenyl)-N-{2-[4-(4-fluoro-phenyl)-piperazin-1-yl]-6-trifluoromethyl-pyridin-3-ylmethyl}-propionamide], the negative logarithm of the Ki (pKi) is 9.00 in experiment [3] (read-out: Ki (rat) Cap.) and 8.96 in experiment [4]. In addition, the results for the inhibition in vivo at 0.3 mg/kg in experiment [5] and in experiment [6] were 57% and 5%, respectively. Besides, the negative logarithm of the IC50 (pIC50) in experiment [2] is 7.64.

On to `CCC1CCC(Oc2nc(C(F)(F)F)ccc2CNC(=O)C(C)c2ccc(NS(C)(=O)=O)c(F)c2)CC1` (stereo not shown) [Example 171, N-[2-(4-ethyl-cyclohexyloxy)-6-trifluoromethyl-pyridin-3-ylmethyl]-2-(3-fluoro-4-methylsulfonamido-phenyl)-propionamide], for which the negative logarithm of the Ki (pKi) in experiment [3] (Ki (rat) Cap.) is 8.62; in experiment [4], 8.32. Moreover, the inhibition in vivo at 0.3 mg/kg in experiment [5] amounted to 32%; in experiment [6], 45%. Further, the pIC50 in experiment [2] was 6.90.

Take `CC(C(=O)NCc1ccc(C(F)(F)F)nc1-c1cccs1)c1ccc(NS(C)(=O)=O)c(F)c1` (stereo not shown) [Example 88, 2-(3-fluoro-4-methylsulfonamido-phenyl)-N-((6-(trflluoromethyl)-2-(thiophen-2-yl)pyridin-3-yl)methyl)-propionamide]: the negative-log Ki (pKi) in experiment [3] (read-out: Ki (rat) Cap.) is 8.30; in experiment [4], 9.52. The inhibition in vivo at 0.3 mg/kg in experiment [5] was 38%; in experiment [6] it was 4%. The compound further had a pIC50 in experiment [2] of 7.24.

On to `CC(C(=O)NCc1ccc(C(F)(F)F)nc1SC1CCCCC1)c1ccc(NS(C)(=O)=O)c(F)c1` (stereo not shown) [Example 126], for which the pKi was 8.92 in experiment [3] (read-out: Ki (rat) Cap.) and 9.05 in experiment [4]. The inhibition in vivo at 0.3 mg/kg in experiment [5] was 0%. In experiment [2], this compound gave a negative-log IC50 (pIC50) of 7.00. Besides, the inhibition in vivo at 0.1 mg/kg in experiment [6] was 20%.

Turning to `CC(C(=S)NCc1ccc(C(F)(F)F)nc1-c1ccc(F)cc1)c1ccc(NS(C)(=O)=O)c(F)c1` (stereo not shown) [Example 130, 2-(3-fluoro-4-methylsulfonamido-phenyl)-N-[2-(4-fluoro-phenyl)-6-trifluoromethyl-pyridin-3-ylmethyl]-thiopropionamide], the pKi in experiment [3] (read-out: Ki (rat) Cap.) is 8.35; in experiment [4], 8.68. Also, the inhibition in vivo at 0.3 mg/kg turned out to be 58% in experiment [5] and 41% in experiment [6]. The pIC50 in experiment [2] was 7.46.

As for `CC(C(=O)NCc1ccc(C(F)(F)F)nc1OCC1CCNCC1)c1ccc(NS(C)(=O)=O)c(F)c1` (stereo not shown) [Example 343, 2-(3-fluoro-4-methylsulfonamido-phenyl)-N-[2-(piperidin-4-ylmethoxy)-6-trifluoromethyl-pyridin-3-ylmethyl]-propionamide], the inhibition at 5 µM in experiment [1] came to 55%. Also, the “inhibition in percent, IC50 (human) after pH stimulus” value in experiment [2] is “ne @ 1 μM”.

Regarding `CC(C(=O)NCc1ccc(C(F)(F)F)cc1N1CCCCCC1)c1ccc(NS(C)(=O)=O)c(F)c1` (stereo not shown) [Example 174, N-(2-azepan-1-yl-4-trifluoromethyl-benzyl)-2-(3-fluoro-4-methylsulfonamido-phenyl)-propionamide], the negative-log Ki (pKi) is 8.85 in experiment [3] (read-out: Ki (rat) Cap.) and 8.80 in experiment [4]. Further, the inhibition in vivo at 0.3 mg/kg in experiment [5] was determined as 39%; in experiment [6] it was 5%. The compound further showed a pIC50 in experiment [2] of 7.19.

`CCCCNc1nc(C(F)(F)F)ccc1CNC(=O)C(C)c1ccc(NS(C)(=O)=O)c(F)c1` (stereo not shown) [Example 116, N-(2-butylamino-6-trifluoromethyl-pyridin-3-ylmethyl)-2-(3-fluoro-4-methylsulfonamido-phenyl)-propionamide]: the negative-log Ki (pKi) in experiment [3] (read-out: Ki (rat) Cap.) is 8.18; in experiment [4], 8.04. Besides, the inhibition in vivo at 0.3 mg/kg in experiment [5] is 21%. Moreover, the pIC50 in experiment [2] is 6.53. The inhibition in vivo at 0.1 mg/kg in experiment [6] amounted to 39%.

For `CC(C(=O)NCc1ccc(C(F)(F)F)nc1-c1ccc(C(C)(C)C)cc1)c1ccc(NS(C)(=O)=O)c(F)c1` (stereo not shown) [Example 117], the negative logarithm of the Ki (pKi) in experiment [3] (read-out: Ki (rat) Cap.) and in experiment [4] was 9.30 in each case. The inhibition in vivo at 0.3 mg/kg was determined as 70% in experiment [5] and 5% in experiment [6]. In experiment [2], this compound showed a pIC50 of 7.63.

In the case of `CC1CCN(c2nc(C(F)(F)F)ccc2CNC(=O)C(C)c2ccc(NS(=O)(=O)C(F)(F)F)c(F)c2)CC1` (stereo not shown) [Compound 312], in experiment [1], the inhibition at 1 µM amounted to 7%.

Turning to `CC(C(=O)NCc1ccc(C(F)(F)F)nc1NCc1ccc(Cl)cc1)c1ccc(NS(C)(=O)=O)c(F)c1` (stereo not shown) [Example 173, N-[2-(4-chloro-benzylamino)-6-trifluoromethyl-pyridin-3-ylmethyl]-2-(3-fluoro-4-methylsulfonamido-phenyl)-propionamide], the figures for the negative-log Ki (pKi) in experiment [3] (read-out: Ki (rat) Cap.) and in experiment [4] were 7.11 and 7.18, respectively. Further, the inhibition in vivo at 0.3 mg/kg came out at 36% in experiment [5] and 0% in experiment [6]. The compound also gave a pIC50 in experiment [2] of 6.38.
